IC50 data for 21 molecules are collected here from US20090099195A1 (ASTRAZENECA AB, priority 2007, published 2009).

Structures are written as SMILES.

The assay deals with T1, hP2X3 (human Purinergic P2X receptors subtype 3), clone B (Homo sapiens, UniProt P56373).
T1 sequence (P56373 1-397): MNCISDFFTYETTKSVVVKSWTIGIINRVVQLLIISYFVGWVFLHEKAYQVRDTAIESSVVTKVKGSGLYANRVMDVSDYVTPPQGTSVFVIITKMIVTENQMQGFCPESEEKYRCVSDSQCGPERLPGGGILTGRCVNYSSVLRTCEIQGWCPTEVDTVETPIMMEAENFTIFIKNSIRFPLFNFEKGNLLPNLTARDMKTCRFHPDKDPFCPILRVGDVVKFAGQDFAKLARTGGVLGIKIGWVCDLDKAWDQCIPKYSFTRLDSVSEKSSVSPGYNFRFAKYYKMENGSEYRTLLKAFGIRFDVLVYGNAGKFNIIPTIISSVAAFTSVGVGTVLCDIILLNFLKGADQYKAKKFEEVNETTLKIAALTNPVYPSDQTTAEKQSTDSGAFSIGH
Briefly: hP2X3 FLIPR calcium (Fluo-4) antagonist assay, clone B. The conditions noted are these: Human P2X3 FLIPR Clone B IC50 (nM), RLE cells expressing hP2X3 clone B (NM_002559); agonist 500 nM α,β-methylene-ATP.

Protocol: The assay used a calcium indicator dye (Fluo-4) that emits fluorescence, the intensity of which is related to the concentration of calcium that entered the cell when P2X3 was activated and the channel opened. Activation of hP2X3 or rat P2X3 and rat P2X2/3 (from the coexpression of rat P2X3 and rat P2×2) is elicited the by P2X3 agonist α,β methylene-ATP (Sigma M6517), and the resulting fluorescence is measured with a FLIPR II™ instrument (Molecular Devices). Compounds are tested for their ability to inhibit the agonist-induced fluorescent signal.
For the rat P2X2/3 HEK-TREX cells, induction of the rat P2X3 expression is used to generate the rat P2X2/3 channels in HEK-TREX cells and performed by addition of 1 μg/mL tetracycline (Invitrogen) 24 h prior to compounds testing to the HEK-TREX expressing the rat P2X2 constitutively. On the day of the experiment, the cells and test compounds are prepared as follows. […] After preparing the compounds, the medium is removed from the cell plates by inversion. A loading solution of 30 μL assay buffer containing 4 μM of the calcium indicator dye FLUO-4 AM (Molecular Probes F14202) is added to each well using a Multidrop (Labsystems). […] The incubation is terminated by washing the cells four times in assay buffer using a Skatron Embla (Molecular Devices), and 25 μL of assay buffer was left in each well. Cell plates are then transferred to the FLIPR. Experiments are initiated by measuring a baseline fluorescence reading for 10 seconds, followed by the addition of 12.5 μL of cpds and data sampling for a total 280 seconds. The experiments are terminated by addition of 12.5 μL of a reference agonist (500 nM α,β-methylene-ATP) or buffer, producing a final assay volume of 50 μL followed by data sampling for an additional 280 seconds.
In P2X3 antagonist experiments (human and rat assays) data are analysed as normalised maximal peak fluorescence monitored following agonist addition and calculated as percent of relative fluorescent counts from control agonist. The dose-response antagonist inhibition curves are analyzed in a 4-parameter sigmoidal fit using a non-linear curve-fitting program (XLfit version 5.0.6, ID Business Solutions Limited, Guildford, UK).

What is called IC50 is the concentration at which inhibition is half-maximal. Regarding `CC(=O)N1CCN(c2nc3c(c(N(Cc4ccc(Cl)cc4)CC4CC4)n2)CN(C(C)C)C3=O)CC1` [Example 59, 2-(4-acetylpiperazin-1-yl)-4-[(4-chlorobenzyl)(cyclopropylmethyl)amino]-6-isopropyl-5,6-dihydro-7H-pyrrolo[3,4-d]pyrimidin-7-one], the IC50 worked out at 220 nM. `CC(=O)N1CCN(c2nc3c(c(N4CCC[C@H]4Cc4ccccc4)n2)CN(C(C)C)C3=O)CC1` [Example 117, 2-(4-acetylpiperazin-1-yl)-4-[(2S)-2-benzylpyrrolidin-1-yl]-6-isopropyl-5,6-dihydro-7H-pyrrolo[3,4-d]pyrimidin-7-one]: the IC50 came out at 3700 nM. The result for `CC(=O)N1CCN(c2nc3c(c(N4CCCC4Cc4cccc(Cl)c4)n2)CN(C(C)C)C3=O)CC1` (stereo not drawn) [Example 48, 2-(4-acetylpiperazin-1-yl)-4-[2-(3-chlorobenzyl)pyrrolidin-1-yl]-6-isopropyl-5,6-dihydro-7H-pyrrolo[3,4-d]pyrimidin-7-one] reads 300 nM; that for `CCCN1Cc2c(NC(c3ccccc3)c3ccccc3)nc(N3CCOCC3)nc2C1=O` [Example 110, 4-[(diphenylmethyl)amino]-2-morpholin-4-yl-6-propyl-5,6-dihydro-7H-pyrrolo[3,4-d]pyrimidin-7-one], 3300 nM. For `CC(=O)N1CCN(c2nc(N[C@H](C)c3ccc(OC(CF)CF)cc3)c3c(n2)C(=O)N(C(C)C)C3)CC1` [Example 250, (R)-2-(4-acetylpiperazin-1-yl)-4-(1-(4-(1,3-difluoropropan-2-yloxy)phenyl)ethylamino)-6-isopropyl-5H-pyrrolo[3,4-d]pyrimidin-7(6H)-one], the IC50 stood at 430 nM. As for `CCN(CC)c1nc(NC(c2ccccc2)c2ccccc2)c2c(n1)C(=O)N(C(C)C)C2` [Example 89, 4-(Benzhydryl-amino)-2-diethylamino-6-isopropyl-5,6-dihydro-pyrrolo[3,4-d]pyrimidin-7-one], the figure is 6200 nM. The result for `CC(=O)N1CCN(c2nc(NC(C)(C)Cc3ccc(F)cc3)c3c(n2)C(=O)N(C2CCOCC2)C3)CC1` [Example 305, 3-(4-acetylpiperazin-1-yl)-5-[[1-(4-fluorophenyl)-2-methyl-propan-2-yl]amino]-8-(oxan-4-yl)-2,4,8-triazabicyclo[4.3.0]nona-1,3,5-trien-9-one] reads 2400 nM. The result for `CC(C)N1Cc2c(NCc3cnc4ccccc4c3)nc(N3CCN(S(C)(=O)=O)CC3)nc2C1=O` [Example 329, 6-(1-methylethyl)-2-[4-(methylsulfonyl)piperazin-1-yl]-4-[(quinolin-3-ylmethyl)amino]-5,6-dihydro-7H-pyrrolo[3,4-d]pyrimidin-7-one] reads 8900 nM; that for `CCOc1ccc([C@@H](C)Nc2nc(N3CCN(C(C)=O)CC3)nc3c2CN(C(C)C)C3=O)cc1C` [Example 167, (R)-2-(4-acetylpiperazin-1-yl)-4-(1-(4-ethoxy-3-methylphenyl)ethylamino)-6-isopropyl-5H-pyrrolo[3,4-d]pyrimidin-7(6H)-one], 65 nM; that for `CCN1CCN(c2nc(NC(c3ccccc3)c3ccccn3)c3c(n2)C(=O)N(C(C)C)C3)CC1` (stereo not drawn) [Example 119, 2-(4-ethylpiperazin-1-yl)-6-isopropyl-4-{[phenyl(pyridin-2-yl)methyl]amino}-5,6-dihydro-7H-pyrrolo[3,4-d]pyrimidin-7-one], 3200 nM.

Turning to `CC(C)N1Cc2c(NC(c3ccccc3)c3ccccc3)nc(N3CCN(C(=O)C4CC4)CC3)nc2C1=O` [Example 79, 4-(Benzhydryl-amino)-2-(4-cyclopropanecarbonyl-piperazin-1-yl)-6-isopropyl-5,6-dihydro-pyrrolo[3,4-d]pyrimidin-7-one], the IC50 was found to be 130 nM. The result for `COc1ccc(CC2CCCN2c2nc(N3CCN(C(C)=O)CC3)nc3c2CN(C(C)C)C3=O)cc1` (single isomer, unassigned) [Example 288, 2-(4-acetylpiperazin-1-yl)-6-isopropyl-4-[2-[(4-methoxyphenyl)methyl]pyrrolidin-1-yl]-5H-pyrrolo[3,4-d]pyrimidin-7-one] reads 1400 nM. The result for `CCN1CCN(c2nc(NC(c3ccccc3)c3ccc(Cl)cc3)c3c(n2)C(=O)N(C(C)C)C3)CC1` (stereo not drawn) [Example 18, 4-{[(4-chlorophenyl)(phenyl)methyl]amino}-2-(4-ethylpiperazin-1-yl)-6-isopropyl-5,6-dihydro-7H-pyrrolo[3,4-d]pyrimidin-7-one] reads 180 nM. As for `CC(C)N1Cc2c(NCc3cnc4ccccc4c3)nc(NCC3CCOCC3)nc2C1=O` [Example 219, 6-(1-methylethyl)-4-[(quinolin-3-ylmethyl)amino]-2-[(tetrahydro-2H-pyran-4-ylmethyl)amino]-5,6-dihydro-7H-pyrrolo[3,4-d]pyrimidin-7-one], the figure is 8400 nM; as for `CC(=O)N1CCN(c2nc(NCCc3ccc(C)c(C)c3)c3c(n2)C(=O)N(C(C)C)C3)CC1` [Example 55, 2-(4-acetylpiperazin-1-yl)-4-{[2-(3,4-dimethylphenyl)ethyl]amino}-6-isopropyl-5,6-dihydro-7H-pyrrolo[3,4-d]pyrimidin-7-one], 9700 nM.

Consider `CC(=O)N1CCN(c2nc(NC(C)c3ccc(C(C)(C)C#N)c(F)c3)c3c(n2)C(=O)N(C(C)C)C3)CC1` (stereo not drawn) [Example 163, 2-(4-(1-(2-(4-acetylpiperazin-1-yl)-6-isopropyl-7-oxo-6,7-dihydro-5H-pyrrolo[3,4-d]pyrimidin-4-ylamino)ethyl)-2-fluorophenyl)-2-methylpropanenitrile], for which the IC50 came to 1700 nM. As for `CC(C)N1Cc2c(NC(C)(C)Cc3ccc(Cl)cc3)nc(N3CCN(C(=O)C4CC4)CC3)nc2C1=O` [Example 126, 4-{[2-(4-chlorophenyl)-1,1-dimethylethyl]amino}-2-[4-(cyclopropylcarbonyl)piperazin-1-yl]-6-isopropyl-5,6-dihydro-7H-pyrrolo[3,4-d]pyrimidin-7-one], the figure is 2300 nM; as for `CC(=O)N1CCN(c2nc(N[C@H](C)c3ccc(C)c(C)c3)c3c(n2)C(=O)N(C(C)C)C3)CC1` [Example 170, (R)-2-(4-acetylpiperazin-1-yl)-4-(1-(3,4-dimethylphenyl)ethylamino)-6-isopropyl-5H-pyrrolo[3,4-d]pyrimidin-7(6H)-one], 96 nM; as for `CCC(Nc1nc(N2CCN(C(C)=O)CC2)nc2c1CN(C(C)C)C2=O)c1ccc(C)cc1` (stereo not drawn) [Example 36, 2-(4-acetylpiperazin-1-yl)-6-isopropyl-4-{[1-(4-methylphenyl)propyl]amino}-5,6-dihydro-7H-pyrrolo[3,4-d]pyrimidin-7-one], 1800 nM. Take `CC(=O)N1CCN(c2nc(NC(C)c3nc(-c4ccccc4)no3)c3c(n2)C(=O)N(C(C)C)C3)CC1` (stereo not drawn) [Example 13, 2-(4-acetylpiperazin-1-yl)-6-isopropyl-4-{[1-(3-phenyl-1,2,4-oxadiazol-5-yl)ethyl]amino}-5,6-dihydro-7H-pyrrolo[3,4-d]pyrimidin-7-one]: the IC50 amounted to 220 nM. The result for `CC(=O)N1CCN(c2nc3c(c(N(Cc4cc5ccccc5cn4)C(C)C)n2)CN(C(C)C)C3=O)CC1` [Example 254, 2-(4-acetylpiperazin-1-yl)-6-isopropyl-4-(isopropyl(isoquinolin-3-ylmethyl)amino)-5H-pyrrolo[3,4-d]pyrimidin-7(6H)-one] reads 75 nM.
